Assay results from patent US10501449B2 (priority 2018, dated 2019).
pIC50: −log10 of the molar value. Like-named read-outs stand apart in the source and are kept apart here.

Legend:
[1] = target: T1, hROMK (human Kir1.1) (Homo sapiens (Human), UniProt P48048); test: cell-based; assay type: cell-based; conditions: whole-cell manual patch clamp, CHO T-Rex hROMK stable cell line, voltage step to -120 mV, Ba2+-subtracted hROMK current; read-out: ROMK EP IC50
Protocol: ROMK Manual Patch Clamp Assay
Cell culture conditions: Cells were maintained in conditions similar to those for Thallium flux assay. hROMK channel expression was induced by adding 0.6 μg/ml of Doxycycline 16-24 hrs prior to the experiments. On the day of experiment, the cells were dissociated using Versene, resuspended in growth media and plated onto coverslips 15 minutes prior to use.
Electrophysiology: The coverslip plated with cells was placed in the experiment chamber perfused with bath solution composed of (in mM): 135 NaCl, 5 KCl, 2 CaCl2, 1 MgCl2, 10 HEPES, 5 Glucose (pH 7.4). Patch pipettes with resistance between 2-5 Megaohms, when filled with a solution containing (in mM): 135 KCl, 1 EGTA, 1 MgCl2, 10 HEPES, 2 Na2ATP (pH 7.3), were used to form gigaseals. The cells were voltage clamped at −75 mV in whole-cell configuration using an Axopatch 200b or Multiclamp 700b (Molecular Devices) amplifier controlled by pClamp Software (Molecular Devices). The current was recorded by applying a voltage step to −120 mV every 10 seconds. […] At the end of the experiment, the cells were perfused with bath solution containing 2 mM Ba^2+ to isolate the contribution of hROMK current.
Data analysis: Raw current values (5 traces each for control, different compound concentration and Ba^2+ treatment groups) were exported from Clampfit into Microsoft Excel where the current remaining after application of Ba^2+ was subtracted from raw current to obtain hROMK specific current.

[2] = target: hERG channels (Homo sapiens (Human), UniProt Q12809); test: hERG Manual Patch Clamp Assay; assay type: cell-based; conditions: human, HEK 293 cells stably expressing hERG channels, pH 7.4, 1 uM, read-out: hERG EP % Inh @ 1 uM
[3] = target: T1, hROMK (human Kir1.1); test: cell-based; conditions: CHO T-Rex hROMK stable cell line; thallium flux; 10-point concentration response curve; read-out: Human ROMK Th Flux IC50

T1 sequence (P48048 whole entry): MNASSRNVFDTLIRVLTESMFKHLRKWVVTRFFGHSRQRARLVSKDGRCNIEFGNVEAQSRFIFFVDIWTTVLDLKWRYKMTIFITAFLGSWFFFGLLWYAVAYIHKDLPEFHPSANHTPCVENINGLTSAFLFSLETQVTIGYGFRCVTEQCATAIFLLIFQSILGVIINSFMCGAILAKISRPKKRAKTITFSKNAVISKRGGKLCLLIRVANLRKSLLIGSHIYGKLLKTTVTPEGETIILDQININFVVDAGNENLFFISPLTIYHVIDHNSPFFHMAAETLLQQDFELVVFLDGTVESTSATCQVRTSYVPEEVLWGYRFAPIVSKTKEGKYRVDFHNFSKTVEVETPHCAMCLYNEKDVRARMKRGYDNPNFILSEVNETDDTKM
hERG channels, sequence (Q12809 whole entry): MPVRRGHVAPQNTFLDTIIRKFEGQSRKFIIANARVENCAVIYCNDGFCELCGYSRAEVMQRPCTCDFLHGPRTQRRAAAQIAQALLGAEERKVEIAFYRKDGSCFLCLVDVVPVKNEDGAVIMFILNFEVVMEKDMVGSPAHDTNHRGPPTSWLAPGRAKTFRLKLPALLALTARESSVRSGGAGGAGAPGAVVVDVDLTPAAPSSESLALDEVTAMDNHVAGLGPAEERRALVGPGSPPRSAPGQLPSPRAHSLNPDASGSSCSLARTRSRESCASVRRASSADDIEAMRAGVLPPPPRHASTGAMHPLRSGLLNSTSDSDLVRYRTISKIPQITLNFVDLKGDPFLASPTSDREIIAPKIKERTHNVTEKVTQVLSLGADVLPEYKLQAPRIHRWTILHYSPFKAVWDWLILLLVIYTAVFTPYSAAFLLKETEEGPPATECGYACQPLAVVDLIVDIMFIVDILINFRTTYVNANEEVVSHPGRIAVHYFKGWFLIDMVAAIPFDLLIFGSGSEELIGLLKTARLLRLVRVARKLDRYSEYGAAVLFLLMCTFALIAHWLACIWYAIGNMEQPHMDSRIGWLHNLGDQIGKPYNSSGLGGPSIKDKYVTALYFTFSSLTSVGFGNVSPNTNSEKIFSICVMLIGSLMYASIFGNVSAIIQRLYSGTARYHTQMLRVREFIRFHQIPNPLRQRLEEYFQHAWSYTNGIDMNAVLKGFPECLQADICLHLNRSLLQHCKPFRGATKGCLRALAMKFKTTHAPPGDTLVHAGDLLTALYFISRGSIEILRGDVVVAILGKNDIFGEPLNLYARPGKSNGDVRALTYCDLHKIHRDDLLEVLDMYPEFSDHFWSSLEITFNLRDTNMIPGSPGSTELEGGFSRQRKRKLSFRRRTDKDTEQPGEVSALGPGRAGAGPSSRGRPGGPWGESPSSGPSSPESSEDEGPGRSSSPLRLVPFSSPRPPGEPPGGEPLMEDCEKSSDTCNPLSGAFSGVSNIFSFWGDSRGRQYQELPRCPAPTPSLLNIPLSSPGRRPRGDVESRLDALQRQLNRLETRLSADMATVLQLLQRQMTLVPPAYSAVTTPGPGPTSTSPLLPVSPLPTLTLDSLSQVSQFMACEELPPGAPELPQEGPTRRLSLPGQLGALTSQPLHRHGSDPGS

SMILES | pIC50 [1] | inhibition at 1 µM [2] [%] | pIC50 [3]
Cc1cc(-n2ncc(C(C)N3CCN[C@H](c4ccc5c(c4C)COC5=O)C3)n2)ncc1C#N (single isomer, unassigned) [Example 121-I] | 6.13 | 10 | 7.51
Cc1cc(-n2nc(C)c(CN3CC(c4ccc5c(c4C)COC5=O)NC(C)(C)C3)n2)ncc1C#N (single isomer, unassigned) [Example 175-I, 6-(4-((3,3-dimethyl-5-(4-methyl-1-oxo-1,3-dihydroisobenzofuran-5-yl)piperazin-1-yl)methyl)-5-methyl-2H-1,2,3-triazol-2-yl)-4-methylnicotinonitrile] | 7.77 | 15 | 7.51
COc1cc(-n2ncc(CN3CC(c4ccc5c(c4C)COC5=O)NC(C)(C)C3)n2)ncc1C#N (single isomer, unassigned) [Example 190-I, 6-(4-((3,3-dimethyl-5-(4-methyl-1-oxo-1,3-dihydroisobenzofuran-5-yl)piperazin-1-yl)methyl)-2H-1,2,3-triazol-2-yl)-4-methoxynicotinonitrile] | 7.89 | 9.1 | 7.77
Cc1cc(-c2nnc(CN3CC(c4ccc5c(c4C)COC5=O)NC(C)(C)C3)o2)ncc1C#N (single isomer, unassigned) [Example 267-I, 6-(5-((3,3-dimethyl-5-(4-methyl-1-oxo-1,3-dihydroisobenzofuran-5-yl)piperazin-1-yl)methyl)-1,3,4-oxadiazol-2-yl)-4-methylnicotinonitrile] | 7.77 | 9.9 | 7.80
Cc1cc(-n2cc(CN3CCO[C@H](c4ccc5c(c4C)COC5=O)C3)cn2)ncc1C#N [Example 1-I, (R)-4-methyl-6-(4-((2-(4-methyl-1-oxo-1,3-dihydroisobenzofuran-5-yl)morpholino)methyl)-1H-pyrazol-1-yl)nicotinonitrile] | 7.96 | 26 | 7.85
Cc1c([C@@H]2CN(Cc3ccc(-c4ccc5oc(=O)n(C)c5c4)nc3)CCO2)ccc2c1COC2=O [Example 3-I, (R)-3-methyl-5-(5-((2-(4-methyl-1-oxo-1,3-dihydroisobenzofuran-5-yl)morpholino)methyl)pyridin-2-yl)benzo[d]oxazol-2(3H)-one] | 7.36 | 26 | 6.68
COc1cc(-n2cnc(CN3CCN[C@H](c4ccc5c(c4C)COC5=O)C3)c2)ncc1C#N [Example 14-I, (R)-4-methoxy-6-(4-((3-(4-methyl-1-oxo-1,3-dihydroisobenzofuran-5-yl)piperazin-1-yl)methyl)-1H-imidazol-1-yl)nicotinonitrile] | 7.29 | 1.7 | 7.44
Cc1cn(-c2ccc(CN3CCO[C@H](c4ccc5c(c4C)COC5=O)C3)cn2)cn1 [Example 16-I, (R)-4-methyl-5-(4-((6-(4-methyl-1H-imidazol-1-yl)pyridin-3-yl)methyl)morpholin-2-yl)isobenzofuran-1(3H)-one] | 7.96 | 7.3 | 7.48
Cc1cc(-n2cc(CN3CCN[C@H](c4ccc5c(c4C)COC5=O)C3)nn2)ncc1C#N [Example 23-I, (R)-4-methyl-6-(4-((3-(4-methyl-1-oxo-1,3-dihydroisobenzofuran-5-yl)piperazin-1-yl)methyl)-1H-1,2,3-triazol-1-yl)nicotinonitrile] | 8.31 | 12 | 7.52
COc1cc(-n2cc(CN3CCN[C@H](c4ccc5c(c4C)COC5=O)C3)cn2)ncc1C#N [Example 59-I, (R)-4-methoxy-6-(4-((3-(4-methyl-1-oxo-1,3-dihydroisobenzofuran-5-yl)piperazin-1-yl)methyl)-1H-pyrazol-1-yl) nicotinonitrile] | 8.32 | 15 | 7.70
Cc1c([C@@H]2CN(Cc3ccc(-n4cnc(C#N)c4)nc3)CCN2)ccc2c1COC2=O [Example 65-I, (R)-1-(5-((3-(4-methyl-1-oxo-1,3-dihydroiso-benzofuran-5-yl)piper-azin-1-yl)methyl)pyri-din-2-yl)-1H-imidazole-4-carbonitrile] | 8.01 | 21 | 7.85
Cc1cn(-c2ccc(CN3CCN[C@H](c4ccc5c(c4C)COC5=O)C3)cn2)cn1 [Example 66-I, (R)-4-methyl-5-(4-((6-(4-methyl-1H-imidazol-1-yl)pyridin-3-yl)methyl)piperazin-2-yl)iso-benzofuran-1(3H)-one] | 8.33 | 0 | 7.48
Cc1ncn(-c2ccc(CN3CCN[C@H](c4ccc5c(c4C)COC5=O)C3)cn2)n1 [Example 67-I, (R)-4-methyl-5-(4-((6-(3-methyl-1H-1,2,4-tri-azol-1-yl)pyridin-3-yl)methyl)piperazin-2-yl) isobenzofuran-1(3H)-one] | 7.54 | 7.1 | 6.96
Cc1ncn(-c2ncc(CN3C[C@@H](c4ccc5c(c4C)COC5=O)N[C@@H](C)C3)cn2)c1C [Example 94-I, 5-((2R,6S)-4-((2-(4,5-dimethyl-1H-imidazol-1-yl)pyrimidin-5-yl)methyl)-6-methylpiperazin-2-yl)-4-methylisobenzofuran-1(3H)-one] | 7.85 | 4.3 | 7.41
COc1nc(-n2cc(CN3C[C@@H](c4ccc5c(c4C)COC5=O)N[C@@H](C)C3)cn2)ncc1C#N [Example 99-I, 4-methoxy-2-(4-(((3S,5R)-3-methyl-5-(4-methyl-1-oxo-1,3-dihydroisobenzofur-an-5-yl)piperazin-1-yl)methyl)-1H-pyrazol-1-yl)pyrimidine-5-carbonitrile] | 7.54 | 9.6 | 7.48
Cc1nc(-n2ncc(CN3C[C@@H](c4ccc5c(c4C)COC5=O)N[C@@H](C)C3)n2)ncc1C#N [Example 100-I, 4-methyl-2-(4-(((3S,5R)-3-methyl-5-(4-methyl-1-oxo-1,3-dihydroisobenzofur-an-5-yl)piperazin-1-yl)methyl)-2H-1,2,3-triazol-2-yl)pyrimidine-5-carbonitrile] | 7.60 | 3.6 | 7.40
COc1cc(-n2cnc(CN3C[C@@H](c4ccc5c(c4C)COC5=O)N[C@@H](C)C3)c2)ccc1C#N [Example 101-I, 2-methoxy-4-(4-(((3S,5R)-3-methyl-5-(4-methyl-1-oxo-1,3-dihydroisobenzofur-an-5-yl)piperazin-1-yl)methyl)-1H-imidazol-1-yl)benzonitrile] | 7.47 | 3 | 7.59
Cc1cc(-n2cc(CN3C[C@@H](c4ccc5c(c4C)COC5=O)N[C@@H](C)C3)cn2)ccn1 [Example 102-I, 4-methyl-5-((2R,6S)-6-methyl-4-((1-(2-methylpyridin-4-yl)-1H-pyrazol-4-yl)methyl)piperazin-2-yl)isobenzofuran-1(3H)-one] | 7.77 | 5.6 | 7.32
COc1nc(-n2cnc(CN3C[C@@H](c4ccc5c(c4C)COC5=O)N[C@@H](C)C3)c2)ncc1C#N [Example 103-I, 4-methoxy-2-(4-(((3S,5R)-3-methyl-5-(4-methyl-1-oxo-1,3-dihydroisobenzofur-an-5-yl)piperazin-1-yl)methyl)-1H-imidazol-1-yl)pyrimidine-5-carbonitrile] | 7.54 | 14 | 7.60
Cc1cc(-n2cc(CN3C[C@@H](c4ccc5c(c4C)COC5=O)N[C@@H](C)C3)cn2)ncc1C#N [Example 105-I, 4-methyl-6-(4-(((3S,5R)-3-methyl-5-(4-methyl-1-oxo-1,3-dihydroisobenzofur-an-5-yl)piperazin-1-yl)methyl)-1H-pyrazol-1-yl)nicotinonitrile] | 7.96 | 9.7 | 7.59
COc1cc(-n2ncc(CN3C[C@@H](c4ccc5c(c4C)COC5=O)N[C@@H](C)C3)n2)ncc1C#N [Example 107-I, 4-methoxy-6-(4-(((3S,5R)-3-methyl-5-(4-methyl-1-oxo-1,3-dihydroisobenzofur-an-5-yl)piperazin-1-yl)methyl)-2H-1,2,3-triazol-2-yl)nicotinonitrile] | 7.74 | 13 | 7.59
Cc1nn(-c2ncc(CN3C[C@@H](c4ccc5c(c4C)COC5=O)N[C@@H](C)C3)cn2)cc1C#N [Example 108-I, 3-methyl-1-(5-(((3S,5R)-3-methyl-5-(4-methyl-1-oxo-1,3-dihydroisobenzofur-an-5-yl)piperazin-1-yl)methyl)pyrimidin-2-yl)-1H-pyrazole-4-carbonitrile] | 7.68 | 8.7 | 7.52
Cc1c([C@@H]2CN(Cc3cnn(-c4ccc5oc(=O)n(C)c5c4)n3)C[C@H](CO)N2)ccc2c1COC2=O [Example 109-I, 5-(4-(((3R,5R)-3-(hydroxymethyl)-5-(4-methyl-1-oxo-1,3-dihydroisobenzofur-an-5-yl)piperazin-1-yl)methyl)-2H-1,2,3-triazol-2-yl)-3-methylbenzo[d]oxa-zol-2(3H)-one] | 7.27 | 3.6 | 
COc1cc(-n2cnc(CN3C[C@@H](c4ccc5c(c4C)COC5=O)N[C@@H](C)C3)c2)ccn1 [Example 126-I, 5-((2R,6S)-4-((1-(2-methoxypyridin-4-yl)-1H-imidazol-4-yl)methyl)-6-methylpiperazin-2-yl)-4-methylisobenzofuran-1(3H)-one] | 7.77 | 7.8 | 7.47
